Results published in patent US11572590B2, “Methods for evaluating tumor cell spheroids using 3D microfluidic cell culture device” (Dana-Farber Cancer Institute, Inc., priority 2017, dated 2023).
Read-outs that look alike come from different tables or passages of the source.

What was measured:
Assay in all cases: SelectScreen Kinase Profiling, single point inhibition and IC50 for off-target kinases
Format in all cases: biochemical
off-target kinases [1] = biological target: T1, off-target kinases (Homo sapiens, UniProt O60285); conditions: NUAK1 (ARK5), ATP Km app, Adapta
T1 sequence (O60285 1-661): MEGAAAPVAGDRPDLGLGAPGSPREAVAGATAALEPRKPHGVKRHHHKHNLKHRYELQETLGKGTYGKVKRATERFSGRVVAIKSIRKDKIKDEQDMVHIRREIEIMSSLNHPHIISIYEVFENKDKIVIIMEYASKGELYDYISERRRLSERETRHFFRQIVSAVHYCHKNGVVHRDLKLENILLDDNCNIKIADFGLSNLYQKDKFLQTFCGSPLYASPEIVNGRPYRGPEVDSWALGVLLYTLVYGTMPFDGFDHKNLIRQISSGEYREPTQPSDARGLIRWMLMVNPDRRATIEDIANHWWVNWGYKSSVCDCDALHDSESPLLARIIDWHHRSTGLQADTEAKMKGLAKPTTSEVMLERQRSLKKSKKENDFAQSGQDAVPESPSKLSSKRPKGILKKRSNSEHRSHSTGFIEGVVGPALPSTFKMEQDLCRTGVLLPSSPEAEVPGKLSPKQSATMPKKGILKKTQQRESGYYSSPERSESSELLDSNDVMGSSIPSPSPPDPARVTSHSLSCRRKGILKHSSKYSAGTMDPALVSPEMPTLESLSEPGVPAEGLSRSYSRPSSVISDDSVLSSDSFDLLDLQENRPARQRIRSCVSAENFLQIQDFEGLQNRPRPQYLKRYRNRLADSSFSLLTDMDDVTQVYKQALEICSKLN

off-target kinases [2] = biological target: off-target kinases (Homo sapiens, UniProt P21802); conditions: FGFR2, ZLYTE, ATP Km app
off-target kinases (Homo sapiens, UniProt P21802), sequence (P21802 22-821): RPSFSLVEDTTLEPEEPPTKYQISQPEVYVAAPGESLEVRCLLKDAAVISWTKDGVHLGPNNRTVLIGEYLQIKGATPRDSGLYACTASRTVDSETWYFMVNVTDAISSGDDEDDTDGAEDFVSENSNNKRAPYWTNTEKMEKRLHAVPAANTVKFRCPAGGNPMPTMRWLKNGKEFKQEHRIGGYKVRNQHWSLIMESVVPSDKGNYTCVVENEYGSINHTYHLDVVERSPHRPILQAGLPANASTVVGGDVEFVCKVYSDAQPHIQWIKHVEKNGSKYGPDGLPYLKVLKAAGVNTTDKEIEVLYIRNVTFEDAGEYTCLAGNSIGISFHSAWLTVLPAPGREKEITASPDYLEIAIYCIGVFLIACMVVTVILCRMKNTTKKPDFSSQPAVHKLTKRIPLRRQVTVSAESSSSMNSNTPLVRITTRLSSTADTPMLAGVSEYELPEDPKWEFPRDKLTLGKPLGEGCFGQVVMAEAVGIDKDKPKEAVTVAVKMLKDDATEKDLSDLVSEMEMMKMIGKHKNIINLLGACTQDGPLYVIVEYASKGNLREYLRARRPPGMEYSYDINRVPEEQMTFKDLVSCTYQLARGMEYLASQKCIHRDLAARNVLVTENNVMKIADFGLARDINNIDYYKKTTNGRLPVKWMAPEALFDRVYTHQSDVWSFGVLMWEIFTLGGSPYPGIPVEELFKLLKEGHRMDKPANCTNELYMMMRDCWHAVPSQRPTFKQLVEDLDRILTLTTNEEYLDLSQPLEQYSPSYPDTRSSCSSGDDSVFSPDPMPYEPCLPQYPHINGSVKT

off-target kinases [3] = biological target: T2, off-target kinases (Homo sapiens, UniProt O14920); conditions: IKBKB (IKK beta), ATP Km app, ZLYTE
T2 sequence (O14920 1-756): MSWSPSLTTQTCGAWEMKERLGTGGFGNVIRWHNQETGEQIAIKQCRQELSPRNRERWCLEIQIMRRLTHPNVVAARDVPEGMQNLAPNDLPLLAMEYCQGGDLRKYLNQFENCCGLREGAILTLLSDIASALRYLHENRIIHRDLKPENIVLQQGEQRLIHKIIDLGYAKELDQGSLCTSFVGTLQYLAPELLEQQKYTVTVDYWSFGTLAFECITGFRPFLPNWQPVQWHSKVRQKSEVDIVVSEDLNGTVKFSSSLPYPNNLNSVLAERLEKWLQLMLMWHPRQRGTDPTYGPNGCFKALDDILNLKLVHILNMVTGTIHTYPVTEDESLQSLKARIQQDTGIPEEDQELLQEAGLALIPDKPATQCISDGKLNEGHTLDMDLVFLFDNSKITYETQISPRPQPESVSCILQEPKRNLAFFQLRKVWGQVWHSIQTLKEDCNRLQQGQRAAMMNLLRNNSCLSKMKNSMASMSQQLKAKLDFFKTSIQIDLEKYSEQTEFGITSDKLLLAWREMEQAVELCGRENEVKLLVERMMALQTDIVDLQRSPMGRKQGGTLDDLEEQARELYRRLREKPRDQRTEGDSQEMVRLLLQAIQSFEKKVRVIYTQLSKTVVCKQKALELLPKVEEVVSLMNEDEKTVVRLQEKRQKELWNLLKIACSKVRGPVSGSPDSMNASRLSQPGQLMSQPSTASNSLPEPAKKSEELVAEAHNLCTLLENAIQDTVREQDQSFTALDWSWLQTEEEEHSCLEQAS

off-target kinases [4] = biological target: off-target kinases (Homo sapiens, UniProt Q13555); conditions: CAMK2G (CaMKII gamma), LanthaScreen Binding
off-target kinases (Homo sapiens, UniProt Q13555), sequence (Q13555 whole entry): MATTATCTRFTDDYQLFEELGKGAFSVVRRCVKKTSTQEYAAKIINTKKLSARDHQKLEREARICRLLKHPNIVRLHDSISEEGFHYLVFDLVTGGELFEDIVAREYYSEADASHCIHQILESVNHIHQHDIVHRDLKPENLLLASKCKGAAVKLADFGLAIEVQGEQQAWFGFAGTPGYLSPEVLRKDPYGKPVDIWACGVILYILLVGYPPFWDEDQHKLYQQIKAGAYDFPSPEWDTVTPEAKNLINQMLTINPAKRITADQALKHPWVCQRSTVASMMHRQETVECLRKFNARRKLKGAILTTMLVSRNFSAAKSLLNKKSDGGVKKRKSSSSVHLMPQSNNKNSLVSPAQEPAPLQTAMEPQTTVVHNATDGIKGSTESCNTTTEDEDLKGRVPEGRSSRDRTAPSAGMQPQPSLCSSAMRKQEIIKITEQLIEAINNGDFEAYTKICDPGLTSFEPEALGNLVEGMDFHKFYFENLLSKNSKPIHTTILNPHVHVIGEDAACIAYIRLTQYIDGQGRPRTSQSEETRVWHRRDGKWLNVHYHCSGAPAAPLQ

off-target kinases [5] = biological target: off-target kinases (Homo sapiens, UniProt Q9UM73); conditions: ALK, ZLYTE, ATP Km app
off-target kinases (Homo sapiens, UniProt Q9UM73), sequence (Q9UM73 19-1620): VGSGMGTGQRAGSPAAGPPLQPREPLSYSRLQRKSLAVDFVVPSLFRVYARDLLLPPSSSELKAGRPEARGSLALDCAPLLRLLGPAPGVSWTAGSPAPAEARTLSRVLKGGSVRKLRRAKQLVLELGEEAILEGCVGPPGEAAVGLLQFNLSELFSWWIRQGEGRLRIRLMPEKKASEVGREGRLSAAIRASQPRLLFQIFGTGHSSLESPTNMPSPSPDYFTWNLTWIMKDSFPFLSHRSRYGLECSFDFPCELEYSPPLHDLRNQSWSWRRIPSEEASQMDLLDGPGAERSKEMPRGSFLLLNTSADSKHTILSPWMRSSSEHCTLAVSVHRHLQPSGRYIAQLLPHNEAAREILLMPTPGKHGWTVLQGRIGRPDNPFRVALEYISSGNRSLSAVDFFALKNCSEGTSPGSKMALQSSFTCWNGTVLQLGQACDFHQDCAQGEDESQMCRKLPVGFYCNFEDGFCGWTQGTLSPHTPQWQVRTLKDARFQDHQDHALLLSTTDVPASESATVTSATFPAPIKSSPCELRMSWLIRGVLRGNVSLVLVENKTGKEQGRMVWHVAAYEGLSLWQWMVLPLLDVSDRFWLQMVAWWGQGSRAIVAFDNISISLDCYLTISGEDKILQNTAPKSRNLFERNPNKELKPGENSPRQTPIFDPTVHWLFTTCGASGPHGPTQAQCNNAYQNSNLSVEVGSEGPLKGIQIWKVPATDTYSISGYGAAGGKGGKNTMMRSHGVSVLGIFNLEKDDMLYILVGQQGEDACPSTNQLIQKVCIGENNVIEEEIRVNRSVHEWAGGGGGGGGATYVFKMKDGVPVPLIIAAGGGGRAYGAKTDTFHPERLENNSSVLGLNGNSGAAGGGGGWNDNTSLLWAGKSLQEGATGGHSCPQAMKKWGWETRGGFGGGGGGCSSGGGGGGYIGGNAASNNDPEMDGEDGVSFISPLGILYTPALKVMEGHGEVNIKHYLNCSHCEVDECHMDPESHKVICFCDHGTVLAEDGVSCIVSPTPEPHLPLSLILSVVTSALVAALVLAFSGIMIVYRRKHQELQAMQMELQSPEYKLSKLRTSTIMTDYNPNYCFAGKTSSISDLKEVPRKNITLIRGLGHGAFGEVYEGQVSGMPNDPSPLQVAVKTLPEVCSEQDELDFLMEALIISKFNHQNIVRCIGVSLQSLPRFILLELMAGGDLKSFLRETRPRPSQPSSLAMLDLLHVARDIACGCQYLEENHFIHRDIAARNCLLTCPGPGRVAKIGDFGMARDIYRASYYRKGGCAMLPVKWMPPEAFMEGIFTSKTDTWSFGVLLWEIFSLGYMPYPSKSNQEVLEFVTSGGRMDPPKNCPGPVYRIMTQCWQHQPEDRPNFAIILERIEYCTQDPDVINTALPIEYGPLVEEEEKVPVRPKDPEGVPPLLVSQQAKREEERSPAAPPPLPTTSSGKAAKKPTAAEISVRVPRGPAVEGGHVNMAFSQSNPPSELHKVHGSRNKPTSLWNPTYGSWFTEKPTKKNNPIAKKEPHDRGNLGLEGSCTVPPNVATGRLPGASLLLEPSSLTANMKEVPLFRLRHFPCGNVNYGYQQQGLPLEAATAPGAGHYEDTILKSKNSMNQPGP

N#Cc1cc(-c2ncnc(Nc3ccc(N4CCN(C5COC5)CC4)cc3)n2)ccc1OC1CCOCC1 [Compound 1, 5-(4-((4-(4-(oxetan-3-yl)piperazin-1-yl)phenyl)amino)-1,3,5-triazin-2-yl)-2-((tetrahydro-2H-pyran-4-yl)oxy)benzonitrile]
inhibition (off-target kinases [1]; read-out: % Inhibition 1): 83% | inhibition (off-target kinases [1]; read-out: % Inhibition 2): 83% | inhibition (off-target kinases [1]; read-out: % Inhibition Avg): 83% | inhibition (off-target kinases [2]; read-out: % Inhibition 1): 12% | inhibition (off-target kinases [2]; read-out: % Inhibition 2): 11% | inhibition (off-target kinases [2]; read-out: % Inhibition Avg): 12% | inhibition (off-target kinases [3]; read-out: % Inhibition 1): 52% | inhibition (off-target kinases [3]; read-out: % Inhibition 2): 39% | inhibition (off-target kinases [3]; read-out: % Inhibition Avg): 45% | inhibition (off-target kinases [4]; read-out: % Inhibition 1): 18% | inhibition (off-target kinases [4]; read-out: % Inhibition 2): 19% | inhibition (off-target kinases [4]; read-out: % Inhibition Avg): 18% | inhibition (off-target kinases [5]; read-out: % Inhibition 1): 4% | inhibition (off-target kinases [5]; read-out: % Inhibition 2): -2% | inhibition (off-target kinases [5]; read-out: % Inhibition Avg): 1%
